From patent US20050119461A1, “Novel receptor, and compounds which bind thereto” (THE UNIVERSITY OF MELBOURNE, priority 1997, published 2005)
Read-outs that look alike come from different tables or passages of the source.

Columns and labels:
[1] = target: Ox receptor; assay: Ox receptor binding, [3H]-rilmenidine displacement in human brain homogenates; conditions: for Ki / Selectivity Ox/I2: human brain homogenates; for Ki: Table 5, read-out: Receptor Affinities (nM) Ox; for Selectivity Ox/I2: >1 = selectivity for the Ox receptor
Excerpt: Measurement of the affinity and selectivity of such compounds for the a2-adrenoceptor, I2-receptor and Ox receptor binding sites may be carried out by either of two procedures, i.e. ligand displacement studies in membranes of brain and kidney or by autoradiography of brain and kidney sections. In both cases the radioligand is tritiated rilmenidine ([^3H]-RIL).
Male WKY rats are stunned and decapitated. The brains are removed and the forebrain dissected free, then frozen over liquid nitrogen before being stored at −70° C. Human brain cortex samples are obtained within 28 hours of death and frozen over liquid nitrogen before being stored at −70° C. On the day of the measurement the cortex (human or rat) is homogenised in 20 vol ice-cold 50 mM Tris.HCl buffer (pH 7.4) using a Polytron tissue homogeniser. The homogenate is centrifuged at 37000×g for 10 min and the pellet resuspended in 20 vol of fresh buffer and recentrifuged. The pellet is then resuspended in 33 vol of 50 mM Tris.HCl buffer for use in binding assays.
After incubation for 30 min at 25° C., the membranes are recovered by filtration onto Whatman GF/B glass fibre filters presoaked in 1.0% polyethyleneimine. The filters are washed 3 times with cold assay buffer before measurement of bound radioactivity by scintillation counting.

[2] = target: I2-receptor; assay: I2-receptor binding, [3H]-idazoxan displacement in human brain homogenates; conditions: for Ki: human brain homogenates, Table 5, read-out: Receptor Affinities (nM) I2
[3] = target: I2-receptor; assay: I2-receptor binding, [3H]-idazoxan displacement in rat brain homogenates; conditions: for Ki: rat brain homogenates, Table 3, read-out: Receptor Affinities (nM) I2; for affinity for the I2-receptor (in words): rat
Procedure: Male WKY rats are stunned and decapitated.
Brain membranes prepared as above, are incubated in the presence of [^3H]-methoxyidazoxan (52-57 Ci/mmol) 0.5 nM or [^3H]-idazoxan (43-45Ci/mmol) 1.6 nM in Tris.HCl buffer pH 7.4 for α2-adrenoceptor and I2-receptor binding respectively. Inhibition of binding is measured in the presence of increasing amounts of test compound (0.1 nM to 1 mM). Non-specific binding is estimated by addition of 10 μM phentolamine or 100 μM cirazoline respectively. Membrane bound radioactivity is isolated and measured as above by vacuum filtration, washing and scintillation counting. Data is analysed by the “RADLIG” program.

[4] = target: α2-adrenoceptor; assay: α2-adrenoceptor binding, [3H]-methoxyidazoxan displacement in rat brain homogenates; conditions: for Ki: rat brain homogenates, Table 4, read-out: Receptor Affinities (nM) α2; for affinity for the α2-adrenoceptor (in words): rat
Procedure: Male WKY rats are stunned and decapitated. The brains are removed and the forebrain dissected free, then frozen over liquid nitrogen before being stored at −70° C. […] On the day of the measurement the cortex (human or rat) is homogenised in 20 vol ice-cold 50 mM Tris.HCl buffer (pH 7.4) using a Polytron tissue homogeniser. The homogenate is centrifuged at 37000×g for 10 min and the pellet resuspended in 20 vol of fresh buffer and recentrifuged. The pellet is then resuspended in 33 vol of 50 mM Tris.HCl buffer for use in binding assays.

[5] = tested on: Ox receptor; assay: Ox receptor binding, [3H]-rilmenidine displacement in rat brain homogenates; conditions: for Ki: read-out: Receptor Affinities (nM) Ox; for affinity for the Ox receptor (in words): rat
Procedure: Receptor Affinities and Selectivities of Selected Drugs for Ox receptors, α2-adrenoceptors and I2-receptors in Rat Brain Homogenates
In both cases the radioligand is tritiated rilmenidine ([^3H]-RIL).
Male WKY rats are stunned and decapitated. The brains are removed and the forebrain dissected free, then frozen over liquid nitrogen before being stored at −70° C. Human brain cortex samples are obtained within 28 hours of death and frozen over liquid nitrogen before being stored at −70° C. On the day of the measurement the cortex (human or rat) is homogenised in 20 vol ice-cold 50 mM Tris.HCl buffer (pH 7.4) using a Polytron tissue homogeniser. The homogenate is centrifuged at 37000×g for 10 min and the pellet resuspended in 20 vol of fresh buffer and recentrifuged. The pellet is then resuspended in 33 vol of 50 mM Tris.HCl buffer for use in binding assays. Where adrenaline is used in binding assays the buffer also contains 25 μM EDTA and 10 μM pargyline.
After incubation for 30 min at 25° C., the membranes are recovered by filtration onto Whatman GF/B glass fibre filters presoaked in 1.0% polyethyleneimine. The filters are washed 3 times with cold assay buffer before measurement of bound radioactivity by scintillation counting. The binding data are analysed by an iterative non-linear computerised curve fitting program “RADLIG” version 4.0 (McPherson, 1983).

[6] = tested on: Ox receptor; assay: Selectivity data of Table 1 (Ox over alpha2), tissue not stated; type: binding; conditions: tissue and species not stated
Excerpt: The term “selectivity” as used herein refers to the selectivity of a compound for the Ox receptor over another receptor in mammalian tissue containing said receptors. The selectivity is the reciprocal of the ratio of the affinities (in nM) for each receptor site. Preferably the tissue is human tissue.
The compounds prepared above are represented in Table 1 below together with selectivity data where available.

[7] = rat brain homogenates, reciprocal of the ratio of affinities, >1 = more selective for Ox site
[8] = human brains, compared with rat

Row | Structure (SMILES) | Ki [1] [nM] | Selectivity Ox/I2 [1] | Ki [2] [nM] | Ki [3] [nM] | Ki [4] [nM] | Selectivity Ox/I2 [5] | Selectivity Ox/α2 [5] | Ki ([5]; rat brain homogenates, Table 3) [nM] | Ki ([5]; rat brain homogenates, Table 4) [nM] | affinity for the I2-receptor (in words) [3] | affinity for the α2-adrenoceptor (in words) [4] | affinity for the Ox receptor (in words) [5] | Selectivity Ox/α2 [5, 7] | Selectivity Ox/apha2 [6] | Selectivity Ox/I2 [5, 7] | affinity for the Ox receptor (in words) [1, 8] | affinity for the I2-receptor (in words) [2, 8]
1 | FC(F)(F)C(NC1=NCCO1)C1CC1 (single isomer, unassigned; (+)) [(+)-S8349] | 268 | 49 | 13000 |  |  |  |  |  |  |  |  |  |  |  |  |  | 
2 | FC(F)(F)C(NC1=NCCO1)C1CC1 (single isomer, unassigned; (-)) [(−)-S8350] | 199 | 32 | 7700 |  |  |  |  |  |  |  |  |  |  |  |  |  | 
3 | C[C@@H](NC1=NCCO1)C1CCCCC1 [(R)-(−)-O504, (R-(−)-2-(1-Cyclohexylethylamino)-oxazoline)] | 300 | 9 | 2700 | 56 | 590 | 1.8 | 18 | 31 | 32 |  |  |  |  |  |  |  | 
4 | C[C@H](NC1=NCCO1)C1CCCCC1 [(S)-(+)-O504, (S)-(+)-2-(1-Cyclohexylethylamino)-oxazoline] | 180 | 12 | 2190 | 707 | 30 | 6.7 | 1.5 | 106 | 20 |  |  |  |  |  |  |  | 
5 | C[C@H](NC1=NCCO1)c1cccc2ccccc12 [(S)-(−)-O506] | 99 | 77 | 7580 |  |  |  |  |  |  |  |  |  |  |  |  |  | 
6 | CCC1CCCC(C)C1NC1=NCCO1 (stereo not shown) [BAY-A6781] | 215 | 38 | 8250 |  |  |  |  |  |  |  |  |  |  |  |  |  | 
7 | c1ccc2nc(C3=NCCN3)ccc2c1 [BU-224, 2-(4,5-dihydroimidaz-2-yl)quinoline] | 9580 | 0.0002 | 2.2 | 0.9 | 5480 |  |  | > 100000 | > 100000 | high affinity (nM) | poor affinity (μM) | poor (μM) affinity | <0.1 |  |  |  | 
8 | CCC1CCCC(CC)C1NC1=NCCO1 (stereo not shown) [Compound O501] | 38 | 239 | 9100 | 6900 | 210 | 383 | 12 | 18 | 18 |  |  |  |  |  |  |  | 
9 | c1ccc(C(NC2=NCCO2)c2ccccc2)cc1 [Compound O502] | 234 | 3 | 686 | 1900 | 380 | 12 | 2.4 | 160 | 160 |  |  |  |  |  |  |  | 
10 | C1CCC(C(NC2=NCCO2)C2CCCCC2)CC1 [Compound O503] | 70 | 69 | 4800 | 3800 | 640 | 32 | 5.5 | 117 | 117 |  |  |  |  |  |  |  | 
11 | Oc1ccc(CCNC2=NCCO2)cc1 [Compound O508, 2-(4-hydroxyphenyl)ethylaminooxazoline] |  |  |  |  |  |  |  |  |  |  |  |  |  | 100 |  |  | 
12 | CC(CNC1=NCCO1)c1ccc(OCc2ccccc2)cc1 (stereo not shown) [Compound O509, 2-(4-benzyloxyphenyl)propylaminooxazoline] |  |  |  |  |  |  |  |  |  |  |  |  |  | 2.0 |  |  | 
13 | c1ccc2c(c1)OCC(C1=NCCN1)O2 (stereo not shown) [Idazoxan, 2-(1,4-benzodioxan)-imidazoline] | 6060 | 0.0008 | 4.8 | 2.3 | 15.6 |  |  | 62300 | 62300 | high affinity (nM) | high affinity (nM) | poor (μM) affinity | 0.0003 |  | 0.00004 |  | 
14 | COC1(C2=NCCN2)COc2ccccc2O1 (stereo not shown) [Methoxyidazoxan, 2-(2-methoxy-1,4-benzodioxan)-imidazoline)] | 100000 | 1 | > 100000 | 24400 | 1.9 | 0.08 |  | 319000 | 319000 | poor affinity (μM) | high affinity (nM) | poor affinity (μM) |  |  |  |  | 
15 | C1COC(NC(C2CC2)C2CC2)=N1 [Rilmenidine] | 396 | 13 | 5220 | 36 | 410 |  |  | 15 | 15 | high affinity (nM) |  | high affinity (nM) | 27 |  | 2.4 | lower affinity | lower affinity
